Test results published in ChEMBL document CHEMBL1146910, “Selectively guanidinylated derivatives of neamine. Syntheses and inhibition of anthrax lethal factor protease” (Bioorg Med Chem Lett, 2006).

What was measured:
Conditions in all cases: read-out: Ki app
Lethal factor = target: T1, Lethal factor (Bacillus anthracis, UniProt P15917)
T1 sequence (P15917 whole entry): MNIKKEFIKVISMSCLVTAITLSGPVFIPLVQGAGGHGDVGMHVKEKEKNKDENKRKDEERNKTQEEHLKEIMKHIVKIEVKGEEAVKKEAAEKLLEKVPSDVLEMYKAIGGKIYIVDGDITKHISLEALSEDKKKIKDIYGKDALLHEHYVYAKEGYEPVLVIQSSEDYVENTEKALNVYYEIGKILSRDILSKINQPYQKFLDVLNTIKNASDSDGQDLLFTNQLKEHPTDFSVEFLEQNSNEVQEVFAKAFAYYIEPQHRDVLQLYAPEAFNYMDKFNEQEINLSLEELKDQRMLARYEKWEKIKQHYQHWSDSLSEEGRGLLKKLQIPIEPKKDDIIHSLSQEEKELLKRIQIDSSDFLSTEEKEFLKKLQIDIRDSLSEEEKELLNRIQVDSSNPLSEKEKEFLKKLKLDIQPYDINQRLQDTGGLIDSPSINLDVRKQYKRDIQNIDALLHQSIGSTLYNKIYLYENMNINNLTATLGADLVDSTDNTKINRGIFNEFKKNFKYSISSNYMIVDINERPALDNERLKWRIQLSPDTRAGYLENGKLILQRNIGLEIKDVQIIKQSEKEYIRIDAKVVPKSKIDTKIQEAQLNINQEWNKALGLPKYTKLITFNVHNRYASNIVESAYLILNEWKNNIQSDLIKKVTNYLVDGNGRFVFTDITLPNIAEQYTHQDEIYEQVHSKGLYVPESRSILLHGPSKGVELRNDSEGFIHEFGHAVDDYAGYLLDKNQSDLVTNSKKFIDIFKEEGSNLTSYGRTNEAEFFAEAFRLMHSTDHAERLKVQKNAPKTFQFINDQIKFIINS

Interstitial collagenase = target: T2, Interstitial collagenase (Homo sapiens, UniProt P03956); test: Activity at MMP1
T2 sequence (P03956 whole entry): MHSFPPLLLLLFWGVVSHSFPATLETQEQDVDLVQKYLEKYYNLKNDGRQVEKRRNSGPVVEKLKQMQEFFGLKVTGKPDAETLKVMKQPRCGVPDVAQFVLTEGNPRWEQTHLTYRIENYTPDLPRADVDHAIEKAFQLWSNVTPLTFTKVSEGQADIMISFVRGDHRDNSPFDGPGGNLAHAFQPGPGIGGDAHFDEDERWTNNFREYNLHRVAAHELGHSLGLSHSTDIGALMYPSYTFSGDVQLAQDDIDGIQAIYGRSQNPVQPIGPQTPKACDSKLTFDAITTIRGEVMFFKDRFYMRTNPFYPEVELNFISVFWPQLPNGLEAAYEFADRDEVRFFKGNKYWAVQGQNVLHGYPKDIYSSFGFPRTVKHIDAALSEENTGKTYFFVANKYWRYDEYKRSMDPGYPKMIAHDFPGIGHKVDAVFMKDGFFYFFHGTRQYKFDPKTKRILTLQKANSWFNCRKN

[1] = target: Matrix metalloproteinase-14 (Homo sapiens, UniProt P50281); test: Activity at MMP14
[2] = target: Matrix metalloproteinase-9 (Homo sapiens, UniProt P14780); test: Activity at MMP9
Matrix metalloproteinase-9, sequence (P14780 whole entry): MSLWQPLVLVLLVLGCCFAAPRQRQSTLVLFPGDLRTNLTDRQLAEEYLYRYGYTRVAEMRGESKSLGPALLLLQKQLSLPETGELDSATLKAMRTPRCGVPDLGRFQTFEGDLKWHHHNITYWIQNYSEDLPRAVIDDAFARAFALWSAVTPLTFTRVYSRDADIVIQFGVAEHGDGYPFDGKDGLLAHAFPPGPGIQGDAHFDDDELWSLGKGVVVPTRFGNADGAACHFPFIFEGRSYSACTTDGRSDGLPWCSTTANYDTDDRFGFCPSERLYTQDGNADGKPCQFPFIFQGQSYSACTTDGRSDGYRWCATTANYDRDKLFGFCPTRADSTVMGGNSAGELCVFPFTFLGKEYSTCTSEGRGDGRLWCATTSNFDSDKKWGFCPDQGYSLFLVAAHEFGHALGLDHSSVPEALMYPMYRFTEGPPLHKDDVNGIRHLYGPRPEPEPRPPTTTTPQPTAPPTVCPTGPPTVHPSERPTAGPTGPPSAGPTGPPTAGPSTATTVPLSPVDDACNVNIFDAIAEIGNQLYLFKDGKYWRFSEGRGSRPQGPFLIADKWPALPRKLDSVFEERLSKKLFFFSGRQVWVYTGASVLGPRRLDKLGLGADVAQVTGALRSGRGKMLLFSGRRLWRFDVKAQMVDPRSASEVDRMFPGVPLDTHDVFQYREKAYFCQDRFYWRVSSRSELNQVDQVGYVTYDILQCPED

Stromelysin-1 = Stromelysin-1 (Homo sapiens, UniProt P08254); test: Activity at MMP3
Stromelysin-1, sequence (P08254 whole entry): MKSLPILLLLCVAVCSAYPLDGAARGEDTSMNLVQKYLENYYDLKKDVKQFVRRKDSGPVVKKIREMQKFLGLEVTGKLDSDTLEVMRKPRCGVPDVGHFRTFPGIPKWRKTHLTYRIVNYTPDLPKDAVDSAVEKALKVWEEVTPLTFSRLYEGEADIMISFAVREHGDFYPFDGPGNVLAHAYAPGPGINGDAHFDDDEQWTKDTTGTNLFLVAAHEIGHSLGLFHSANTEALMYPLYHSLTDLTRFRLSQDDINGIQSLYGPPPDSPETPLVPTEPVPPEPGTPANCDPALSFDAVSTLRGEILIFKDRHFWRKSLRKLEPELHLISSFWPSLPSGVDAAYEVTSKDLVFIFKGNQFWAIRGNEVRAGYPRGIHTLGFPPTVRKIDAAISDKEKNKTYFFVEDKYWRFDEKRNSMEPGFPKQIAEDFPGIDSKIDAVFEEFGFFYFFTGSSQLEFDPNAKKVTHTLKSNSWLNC

[3] = target: Macrophage metalloelastase (Homo sapiens, UniProt P39900); test: Activity at MMP12
Macrophage metalloelastase, sequence (P39900 whole entry): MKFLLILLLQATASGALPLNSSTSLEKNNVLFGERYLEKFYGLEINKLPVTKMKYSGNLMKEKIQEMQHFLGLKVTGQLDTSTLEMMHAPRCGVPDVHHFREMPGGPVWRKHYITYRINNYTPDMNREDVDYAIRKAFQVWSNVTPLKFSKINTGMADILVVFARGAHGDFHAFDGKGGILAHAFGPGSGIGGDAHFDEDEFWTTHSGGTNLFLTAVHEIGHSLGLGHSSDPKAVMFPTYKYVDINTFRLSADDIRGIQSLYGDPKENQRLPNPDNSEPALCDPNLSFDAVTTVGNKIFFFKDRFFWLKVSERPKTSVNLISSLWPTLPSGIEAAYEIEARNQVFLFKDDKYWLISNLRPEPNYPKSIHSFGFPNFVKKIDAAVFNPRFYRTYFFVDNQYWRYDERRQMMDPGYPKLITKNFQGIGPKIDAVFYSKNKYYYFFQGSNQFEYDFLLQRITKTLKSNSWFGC

SMILES: NC(N)=NC[C@H]1O[C@H](O[C@H]2[C@H](O)[C@@H](O)[C@H](N=C(N)N)C[C@@H]2N)[C@H](N)[C@@H](O)[C@@H]1O
- Ki (Lethal factor): 10.2 µM

SMILES: NC[C@H]1O[C@H](O[C@H]2[C@H](O)[C@@H](O)[C@H](N=C(N)N)C[C@@H]2N=C(N)N)[C@H](N)[C@@H](O)[C@@H]1O
- Ki (Lethal factor): 5.6 µM

SMILES: NC[C@H]1O[C@H](O[C@H]2[C@H](O)[C@@H](O)[C@H](N=C(N)N)C[C@@H]2N)[C@H](N=C(N)N)[C@@H](O)[C@@H]1O
- Ki (Lethal factor): 5.3 µM

SMILES: NC(N)=NC[C@H]1O[C@H](O[C@H]2[C@H](O)[C@@H](O)[C@H](N)C[C@@H]2N)[C@H](N=C(N)N)[C@@H](O)[C@@H]1O
- Ki (Lethal factor): 7.7 µM

SMILES: NC[C@H]1O[C@H](O[C@H]2[C@H](O)[C@@H](O)[C@H](N)C[C@@H]2N=C(N)N)[C@H](N)[C@@H](O)[C@@H]1O
- Ki (Lethal factor): 5.2 µM

SMILES: NC[C@H]1O[C@H](O[C@H]2[C@H](O)[C@@H](O)[C@H](N)C[C@@H]2N=C(N)N)[C@H](N=C(N)N)[C@@H](O)[C@@H]1O
- Ki (Lethal factor): 0.7 µM
- Ki (Interstitial collagenase): > 300 µM
- Ki [1]: > 300 µM
- Ki [2]: > 300 µM
- Ki (Stromelysin-1): > 300 µM
- Ki [3]: > 300 µM

SMILES: N=C(N)NC[C@H]1O[C@H](O[C@H]2[C@H](O)[C@@H](O)[C@H](NC(=N)N)C[C@@H]2NC(=N)N)[C@H](NC(=N)N)[C@@H](O)[C@@H]1O
- Ki (Lethal factor): 0.7 µM
- Ki (Interstitial collagenase): > 300 µM
- Ki [1]: > 300 µM
- Ki [2]: > 300 µM
- Ki (Stromelysin-1): > 300 µM
- Ki [3]: > 300 µM

SMILES: CO[C@@H]1[C@@H](OC)[C@H](N=C(N)N)C[C@H](N=C(N)N)[C@H]1O[C@H]1O[C@H](CN=C(N)N)[C@@H](OC)[C@H](OC)[C@H]1N=C(N)N
- Ki (Lethal factor): 1.5 µM
- Ki (Interstitial collagenase): > 300 µM
- Ki [1]: > 300 µM
- Ki [2]: > 300 µM
- Ki (Stromelysin-1): > 300 µM
- Ki [3]: > 300 µM

SMILES: NC(N)=NC[C@H]1O[C@H](O[C@H]2[C@H](O)[C@@H](O)[C@H](N)C[C@@H]2N=C(N)N)[C@H](N=C(N)N)[C@@H](O)[C@@H]1O
- Ki (Lethal factor): 9.2 µM

SMILES: NC(N)=NC[C@H]1O[C@H](O[C@H]2[C@H](O)[C@@H](O)[C@H](N=C(N)N)C[C@@H]2N)[C@H](N=C(N)N)[C@@H](O)[C@@H]1O
- Ki (Lethal factor): 3.1 µM

SMILES: NC(N)=NC[C@H]1O[C@H](O[C@H]2[C@H](O)[C@@H](O)[C@H](N)C[C@@H]2N)[C@H](N)[C@@H](O)[C@@H]1O
- Ki (Lethal factor): 24.3 µM

SMILES: NC(N)=NC[C@H]1O[C@H](O[C@H]2[C@H](O)[C@@H](O)[C@H](N=C(N)N)C[C@@H]2N=C(N)N)[C@H](N)[C@@H](O)[C@@H]1O
- Ki (Lethal factor): 8.7 µM

SMILES: NC(N)=NC[C@H]1O[C@H](O[C@H]2[C@H](O)[C@@H](O)[C@H](N)C[C@@H]2N=C(N)N)[C@H](N)[C@@H](O)[C@@H]1O
- Ki (Lethal factor): 8.8 µM

SMILES: NC[C@H]1O[C@H](O[C@H]2[C@H](O)[C@@H](O)[C@H](N=C(N)N)C[C@@H]2N)[C@H](N)[C@@H](O)[C@@H]1O
- Ki (Lethal factor): 5 µM

SMILES: NC[C@H]1O[C@H](O[C@H]2[C@H](O)[C@@H](O)[C@H](N)C[C@@H]2N)[C@H](N=C(N)N)[C@@H](O)[C@@H]1O
- Ki (Lethal factor): 10.9 µM

SMILES: NC[C@H]1O[C@H](O[C@H]2[C@H](O)[C@@H](O)[C@H](N=C(N)N)C[C@@H]2N=C(N)N)[C@H](N=C(N)N)[C@@H](O)[C@@H]1O
- Ki (Lethal factor): 0.5 µM
- Ki (Interstitial collagenase): > 300 µM
- Ki [1]: > 300 µM
- Ki [2]: > 300 µM
- Ki (Stromelysin-1): > 300 µM
- Ki [3]: > 300 µM
